Experimental findings from patent US5597820A, “1, 4-benzoxazine derivative and pharmaceutical compositions containing the same” (Kanebo, Ltd., priority 1994, dated 1997) are described below.

As a reminder, the IC50 is the midpoint of a concentration-inhibition curve.

The target in one experiment is T1, Na^+ /H^+ exchange (Rattus norvegicus, UniProt P26431).
T1 construct: A supernatant was separated to prepare platelet-rich plasma; endogenous in cells; host or cells: platelets in platelet-rich plasma from male Wistar rats (abdominal aorta blood)
T1 sequence (P26431 whole entry): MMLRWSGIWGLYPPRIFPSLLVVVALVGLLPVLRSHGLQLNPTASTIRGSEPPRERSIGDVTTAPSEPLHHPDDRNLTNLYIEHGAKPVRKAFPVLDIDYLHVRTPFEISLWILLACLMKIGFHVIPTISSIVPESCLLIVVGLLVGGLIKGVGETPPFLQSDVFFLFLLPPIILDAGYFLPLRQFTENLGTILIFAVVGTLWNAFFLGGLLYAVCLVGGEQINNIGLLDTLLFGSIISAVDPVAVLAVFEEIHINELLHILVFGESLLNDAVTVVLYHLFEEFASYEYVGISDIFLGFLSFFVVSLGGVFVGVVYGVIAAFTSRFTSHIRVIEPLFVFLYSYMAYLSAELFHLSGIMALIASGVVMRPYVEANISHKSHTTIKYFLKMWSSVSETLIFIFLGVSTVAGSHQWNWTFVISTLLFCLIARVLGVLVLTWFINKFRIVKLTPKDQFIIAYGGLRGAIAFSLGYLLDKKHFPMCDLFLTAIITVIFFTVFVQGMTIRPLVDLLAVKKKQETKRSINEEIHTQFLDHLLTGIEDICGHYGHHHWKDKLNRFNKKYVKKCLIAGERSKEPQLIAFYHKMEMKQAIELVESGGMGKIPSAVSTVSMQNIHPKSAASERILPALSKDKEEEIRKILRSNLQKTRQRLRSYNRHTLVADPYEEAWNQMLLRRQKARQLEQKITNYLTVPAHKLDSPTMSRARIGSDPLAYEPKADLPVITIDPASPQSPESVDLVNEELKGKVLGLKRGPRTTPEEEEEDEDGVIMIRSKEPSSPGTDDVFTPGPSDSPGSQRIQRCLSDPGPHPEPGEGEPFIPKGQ
Briefly: Na^+ /H^+ Exchange inhibitory activity (sodium propionate-induced swelling of platelets). It counts as cell-based, rat (male Wistar rats). The conditions noted are these: rat platelet-rich plasma, 37° C. The method, then:
The compounds of the present invention were assessed for their Na^+ /H^+ exchange inhibitory activity based on an activity to inhibit sodium propionate-induced swelling of platelets in accordance with the method of Rosskoph et al. [Journal of Hypertension, 9, 231-238 (1991)].
First, platelet-rich plasma was prepared in accordance with the method of Mammen et al. [Diabetes Research and Clinical Practice, 9(3), 265-272 (1990)]. Briefly, male Wistar rats weighing 190 to 420 g were abdominally operated under anesthesia with ether and blood was taken from the abdominal aorta. For inhibiting blood coagulation, ACD solution (a mixture of 65 mM citric acid, 85 mM sodium citrate, 11 mM dextrose) was added to blood and this treated blood was centrifuged at 90× g for 10 minutes. A supernatant was separated to prepare platelet-rich plasma.
Then, a solution of the test compounds in dimethylsulfoxide was added to 140 mM sodium propionate buffer solution. To this mixture was added the platelet-rich plasma prepared above and a decrease in optical density was recorded with the passage of time at 37° C. using a platelet aggregometer (turbidimeter) and a X-Y recorder to calculate a decrease rate in optical density after mixing with platelet-rich plasma [decrease rate in optical density in the presence of the test compounds (D)]. On the other hand, the solvent dimethylsulfoxide alone was used instead of the solution of the test compounds and the decrease in optical density was recorded in the similar manner to calculate a decrease rate in optical density [control (C)]. A swelling inhibitory rate (%) was calculated using the following formula:
Swelling inhibitory rate (%)=(1-D/C)×100

The subject of the next experiment is reperfusion arrhythmia. Briefly: Inhibitory activity against reperfusion arrhythmia (rat acute myocardial infarction model). The experiment is classed as in vivo, rat (male Sprague-Dawley rats). The conditions noted are these: Test 1 (Table 3), femoral vein, control 92.6 ± 20.2. On the procedure: Using a rat acute myocardial infarction model, the compounds of the present invention were assessed for their inhibitory activity against reperfusion arrhythmia in accordance with the method of […] al. [European Journal of Pharmacology, 194, 7-10 (1991)]. Male Sprague-Dawley rats (weighing 310 to 490 g) were anesthetized by intraperitoneal administration of sodium pentobarbital (50 mg/kg). Under anesthesia, the rats were cannulated via trachea and the cannula was linked to a respirator. An electrocardiogram (the lead II) was obtained from electrodes attached to the limbs using bioelectric amplifier while maintaining the body temperature at 37° C. The chest of the rats were opened at the left fifth intercostal space and the pericardium was cut open to reveal the heart. Then a solution of the test compound in a mixed solvent of polyethylene glycol 400, ethanol and a physiological saline [3:3:14 (v/v)] was administered into the femoral vein. Ten minutes after the administration of the compound, the origin of the left coronary artery was occluded. After occlusion for 5 minutes, reperfusion was carried out for 10 minutes and a duration (second) of a ventricular fibrillation after reperfusion was measured from the electrocardiogram (mean±standard error, n=3 to 10). The ventricular fibrillation was assessed in accordance with the guideline of The Lambeth Convention [Cardiovascular Research, 22, 447-455 (1988)]. On the other hand, the mixed solvent of polyethylene glycol 400, ethanol and a physiological saline [3:3:14 (v/v)] alone was used as a control and a duration (second) of the ventricular fibrillation was measured in a similar manner. Using male Sprague-Dawley rats weighing 310 to 440 g, the duration (second) of the ventricular fibrillation was measured in the same manner as in Test 1 (n=4 to 10). Using male Sprague-Dawley rats weighing 310 to 400 g, the duration (second) of the ventricular fibrillation was measured in the same manner as in Test 1 (n=4 to 6).

In experiment [1] the test system is myocardial infarction lesion. Nature of the experiment: Activity to reduce myocardial infarction lesion (rat acute myocardial infarction model). It counts as in vivo, rat (male Sprague-Dawley rats). The conditions noted are these: Test 1 (Table 6), femoral vein, control 51.4 ± 2.4. The method, then:
Using a rat acute myocardial infarction model, the compounds of the present invention were assessed for their activity to reduce myocardial infarction lesion in accordance with the method of Petty et al. [European Journal of Pharmacology, 192, 383-388 (1991)]. Male Sprague-Dawley rats (weighing 320 to 430 g) were anesthetized by intraperitoneal administration of sodium pentobarbital (50 mg/kg). Under anesthesia, the rats were cannulated via trachea and the cannula was linked to a respirator and then the body temperature was maintained at 37° C. The chest of the rats were opened at the left fifth intercostal space and the pericardium was cut open to reveal the heart. Then a solution of the test compound in a mixed solvent of polyethylene glycol 400, ethanol and a physiological saline [3:3:14 (v/v)] was administered into the femoral vein. Ten minutes after the administration of the compound, the origin of the left coronary artery was occluded. After occlusion for 30 minutes, reperfusion was carried out for 2 hours. After reperfusion, the heart was removed and the origin of the left coronary artery was ligated again. The heart was cannulated via the aorta and a 0.025% solution of Evans blue was perfused using a syringe pump to distinguish an ischemic region (not stained with Evans blue) and a non-ischemic region (stained with Evans blue). The ischemic region was incubated in a 0.1% triphenyltetrazolium chloride (TTC) solution at 37° C. for 30 minutes to distinguish a TTC-stained region and a non-stained region (infarction region).

Compound `CC1Oc2cc(C(=O)NC(=N)N)ccc2N(C(C)C)C1=O` (stereo not shown) [Example 2, N-amidino-2-methyl-4-(2-propyl)-3-oxo-3,4-dihydro-2H-1,4-benzoxazine-7-carboxamide] registered an IC50 against Na^+ /H^+ exchange of 94 nM. In addition, the “Duration (second) of ventricular fibrillation (mean ± standard error)” value with reperfusion arrhythmia (0.01 mg/kg) was determined as 118.9 ± 59.4 s; in the experiment with reperfusion arrhythmia (0.1 mg/kg, *: p < 0.05) it was 19.1 ± 12.4 s; in the experiment with reperfusion arrhythmia (1 mg/kg, *: p < 0.05) it was 0.0 ± 0.0 s. Further, the “Infarction region/ischemic region (%) (mean ± standard error)” value was determined as 41.7 ± 10.3% in experiment [1] (0.01 mg/kg); 35.6 ± 3.5% in experiment [1] (0.1 mg/kg); 7.2 ± 4.9% in experiment [1] (1 mg/kg, **: p < 0.01).
